Legend:
[1] = tested on: hepatic epithelioid tissue (small hepatocytes and bile duct epithelial cells); assay: Fluorescein diacetate uptake and flow into bile duct in hepatic epithelioid tissue; type: cell-based, mice; conditions: hepatic epithelioid tissue 2 weeks after overlaying Matrigel; fluorescence microscopy
Description: After 4 mg/ml of a type I collagen solution was prepared, it was added to wells of a pre-cooled culture plate (manufactured by Greiner Bio-One Co., Ltd.), followed by allowing to stand at 37° C. for 30 to 60 minutes to be gelatinized. Bile duct epithelial cells suspended in a DMEM/F12 medium (manufactured by Sigma Aldrich Co. LLC) containing 10% serum (fetal bovine serum), 1×insulin-transferrin-selenium (ITS), 0.1 μM dexamethasone, 5 ng/ml epidermal growth factor (EGF), and 5 ng/ml hepatocyte growth factor (HGF) were inoculated in a 24-well plate at 5×10^4 cells/well. […] The density in the cultured region of the bile duct epithelial cells in the cultured region was measured with image analysis software (manufactured by Olympus Corporation) by using photographs taken under a microscope. […]
Fluorescein diacetate (FDA) (manufactured by Tokyo Chemical Industry Co., Ltd.) was taken up by the above-mentioned hepatic epithelioid tissue 2 weeks after overlaying Matrigel, and observation was performed with a phase-contrast microscope and a fluorescence microscope. […] FDA is taken by hepatocytes and hydrolyzed to become fluorescein that emits a fluorescence, and then is excreted into the bile canaliculus.

[2] = tested on: hepatic epithelioid tissue (small hepatocytes and bile duct epithelial cells); assay: Uptake of bilirubin by the hepatic epithelioid tissue reconstructed ex vivo; type: cell-based, mice; conditions: 10 μg/ml bilirubin, 3 to 5 days culture; tissue 2 weeks after overlaying Matrigel; Fouchet's reagent staining
[3] = tested on: barrier functions of the epithelial cells in the organoid; assay: Release of CLF into the medium by inhibition of cell-cell adhesion (tight junction barrier) with MβCD; type: cell-based, mice
[4] = tested on: hepatic epithelioid tissue (small hepatocytes and bile duct epithelial cells); assay: Transportation of bile acid analog CLF from hepatocytes to the bile duct; type: cell-based, mice; conditions: after 6 hours; 1 month after overlaying gel
[5] = tested on: coculture of human CLiP and murine bile duct epithelial cells; assay: CLF transport in coculture of human reprogramming hepatocytes (hCLiP) and murine BEC; type: cell-based; conditions: one week after overlaying collagen gel containing 40% Matrigel
Description: In order to produce an organoid reflecting the metabolic functions of humans, coculture of human reprogramming hepatocytes and murine bile duct epithelial cells was performed. Specifically, murine bile duct epithelial cells were cultured on a collagen gel (the amount of collagen contained in the collagen gel: 4 mg/ml) for 5 days, and then CLIP was inoculated. Two days later, human recombinant oncostatin M (hOSM) (manufactured by R&D Systems Inc.) was added, and then 1 day later, a collagen gel containing 40% EHSgel (Matrigel) was overlaid to perform coculture.
(A) It can be seen that the contact surface between murine BEC (the range indicated in red) and human CLIP has been formed during the early stage of coculture (see FIG. 10A). (B) One week after overlaying a collagen gel containing EHSgel (Matrigel), CLF was added.

For `CC(=O)Oc1ccc2c(c1)Oc1cc(OC(C)=O)ccc1C21OC(=O)c2ccccc21` [Fluorescein diacetate], the “flow of fluorescein (from FDA hydrolysed in hepatocytes) into the bile duct” value [1] was “fluorescein has flowed into the bile duct”.
In the case of `C=CC1=C(C)/C(=C/c2[nH]c(Cc3[nH]c(/C=C4\NC(=O)C(C)=C4C=C)c(C)c3CCC(=O)O)c(CCC(=O)O)c2C)NC1=O` [bilirubin], the “flow of bilirubin taken up by hepatocytes into bile duct structure” value [2] is reported as “flows into a bile duct structure formed by bile duct epithelial cells”.
With Methyl beta cyclodextrin [MβCD] the “concentration dependence of CLF release into the medium” value ([3]; 25 mM or 75 mM MβCD) was “release depends on the concentration of MβCD” and the “CLF fluorescence leaked into the medium after MβCD addition” value ([3]; 25 mM or 75 mM MβCD vs no addition, cells 1 month after addition of EHS-gel) was “fluorescence was detected in the medium”.
In the case of cholyl lysine fluorescein [CLF], the “transport to the bile duct” value [4] is reported as “transported to the bile duct” and the “transport of CLF taken up by human CLiP to murine bile duct tissue” value [5] is reported as “transported to a murine bile duct tissue”.
